{"source": "patent US20240415919A1", "about": "“COMPOSITIONS AND METHODS FOR TREATMENT OF AUTOIMMUNE DISORDERS AND CANCER” (Dana-Farber Cancer Institute, Inc., priority 2021, published 2024)", "key": {"FL9.2 T cells": {"system": "FL9.2 T cells", "assay": "FL9 peptide immunization of hosts adoptively transferred with FL9.2 T cells", "assay_type": "in vivo, mouse", "details": "i.p. immunization with peptide in CFA; CD45.1+ B6 or TCRα-/- hosts", "experimental": "CD45.1+B6 hosts were adoptively transferred with FL9.2 T cells and immunized i.p. with FL9 in CFA or no peptide (CFA alone) on day 0. Three days later, activation (CD69) proliferation of FL9.2 T cells (Ki67) was measured.\n(§1) CD45.1^+ B6 or TCRα^−/− mice were transferred with CFSE labelled 2×10^6 FL9.2 Tg T cells followed by i.p. immunization with 100 μg FL9 or FL9-68 peptides in CFA. Proliferation and activation of FL9.2 Tg T cells in the adoptive hosts were analzyed by assessing CFSE dilution, Ki67 and CD69 expression at day 3 and 6 after transfer.\nas §1, with “CD45.1^+B6” for “CD45.1^+ B6”"}, "[1]": {"system": "I-Ab/Ova323-339 Tet+ CD4 cells", "assay": "FL9-68 vaccination followed by Ova323-339/CFA immunization", "assay_type": "in vivo, mouse", "experimental": "FIG. 58(E) CD45.1^+ B6 mice that were vaccinated with FL9-68 in CFA or CFA alone on day 0 were immunized with Ova323-339 peptide in CFA on day 6. The frequency of I-Ab/Ova323-339 Tet^+ CD4 cells in activated (CD44^+) CD4 cells in the spleen and dLN was analyzed on day 14."}, "[2]": {"system": "fully-mismatched kidney transplants", "assay": "BALB/c to B6 kidney transplantation with FL9-SA vaccination", "assay_type": "in vivo, mouse", "experimental": "The left kidney of BALB/c mice (H-2^d) was recovered using a full-length ureter and transplanted into a B6 host (H-2^b). The ureter of the remaining native kidney was then ligated on post-operative day 2-4 to inhibit native kidney function. Surgical success was determined if mice survived seven days post-surgery (POD). Transplanted B6 hosts were treated intraperitoneally with FL9-SA (50 μg), or PBS emulsified in Adjuvant (Addavax™), once a week starting POD2. On day 20 following kidney transplantation (n=5-7/group), allograft draining lymphoid tissues were assessed for FL9-specific Treg (Qa-1-FL9 Tet^+), Tfh, GC B and plasma cells, DSA levels in sera, capillary C4d deposition and gross anatomy of kidney allografts. Survival of kidney allografts was measured by survival of recipients with absence of native kidney function."}, "MCMV": {"system": "MCMV", "assay": "Murine MCMV infection model with FL9-68 vaccination", "assay_type": "in vivo, mouse", "experimental": "FIG. 10A-C provides a graphical representation showing FL9-68-dependent mobilization of CD8 Treg dampens autoantibody responses during MCMV infection. WT B6 mice were infected with MCMV (2×10^5 pfu) and vaccinated with (100 ug/dose) FL9-68 in IFA or IFA alone at day 0, 8 and 12. Mice were bled at day 3, 10 and 18 and levels of anti-dsDNA Ab (panel A), viral titer (panel B) and frequency of activated CD8 Treg (panel C, Ly49+NKG2D+CD8) are shown."}, "EL4 tumor cells (Qa-1+)": {"system": "EL4 tumor cells (Qa-1+)", "assay": "EL4 tumor growth in B6 mice", "assay_type": "in vivo, mouse", "details": "EL4 (Qa-1 WT) in B6 mice; vs isotype control / IFA alone; listed as FL9-68 SA", "experimental": "FIG. 9A-B provides a graphical representation showing that the depletion of CD8 Treg enhances anti-tumor immune responses. WT B6 mice were inoculated with 2×10^5 EL4 (Qa-1 WT) orEL4-Qa-1 KO cells. Mice received EL4 WT or EL4 Qa-1 KO cells were treated with four different conditions: 1) PBS/IFA+ isotype control Ab (mIgG1), 2) PBS/IFA+ anti-Ly49F Ab, 3) PBS/IFA+anti-Qa-1 Ab and 4) FL9.68/IFA+isotype Ab (mIgG1). 100 ug of FL9.68 peptide (day 0 and day 10), 50 ug of anti-Ly49F Ab and 100 ug of anti-Qa-1 Ab (day 0, 3 and 6) were injected respectively. A) Status of Ly49+CD8 cells in the blood at day 3 and 6 after tumor induction (panel A). Tumor growth in mice inoculated with EL4 WT (left) andEL4 Qa-1 KO (right) tumor cells until day 7. […] This effect was not observed in mice inoculated with EL4-Qa-1KO tumor cells (panel B)."}, "FL9 T cells": {"system": "FL9 T cells", "assay": "In vitro FL9 T cell proliferation and killing of activated CD4 cells", "assay_type": "cell-based"}, "Balb/C heart allografts": {"system": "Balb/C heart allografts", "assay": "Balb/C heart transplantation into skin-sensitized B6 hosts after peptide vaccination", "details": "for heart graft survival: compared to adjuvant alone; for graft pathology (C4d deposition, immune cell infiltration): heart allografts; for donor-specific antibody (DSA): heart graft / skin-sensitized recipients", "description": "After selecting FL9-SA, we performed BALB/c to B6 skin transplantation with or without Hsp60p2l6 and FL9-SA, followed by heart transplantation.\nB6 mice were immunized i.p with 50 μg FL9-68/IFA or with IFA alone at day 0 and 7 followed by a BALB/C→B6 skin transplant at day 10. FL9-68/IFA or IFA immunization was repeated on days 10, 13 and 16. At day 27, fully vascularized Balb/C hearts were transplanted into the abdominal cavity of B6 mice using microsurgical techniques, as previously described (Cai et al., 2016). Heart graft survival was determined by monitoring palpable heart beating. At day X after skin sensitization, levels of FL9 T cells, Tfh, GC B and plasma cells in dLNs were analyzed by flowcytometry. Serum was collected from the heart graft recipient B6 mice that were either immunized with FL9-68/IFA or IFA alone at day 16. […] Histological analysis of heart grafts was performed by InvivoEx company using anti-C4d Ab (Hycult Biotech) and Vector Blue Alkaline Phosphatase Substrate Kit (Vector Laboratories).\nB6 mice were immunized i.p with 50 μg FL9-68-Adjuvant (IFA or AddaVax™) or Adjuvant alone at day 0 and 7 followed by a BALB/C→B6 skin transplant at day 10. FL9-68-Adj or Adj immunization was repeated on days 10, 13 and 16. At day 27, fully vascularized Balb/C hearts were transplanted into the abdominal cavity of B6 mice using microsurgical techniques, as previously described^36. Heart graft survival was determined by monitoring palpable heart beating. At day 16 after skin sensitization, levels of FL9 T cells, Tfh, GC B and plasma cells in dLNs were analyzed by flowcytometry. Serum was collected from the heart graft recipient B6 mice that were either immunized with FL9-68/IFA or IFA alone at day 16. […] Histological analysis of heart grafts was performed by InvivoEx company using anti-C4d Ab (Hycult Biotech) and Vector Blue Alkaline Phosphatase Substrate Kit (Vector Laboratories)."}}, "note": "Values joined by “and” are separate entries in the source; they are usually repeats but may differ in a detail not shown here. Equal values may be shown once. “Also recorded” adds a separate entry of the source.", "data": [{"sequence": "FYAEATLML [FL9-68]", "values": [{"measurement": "in vivo activation/proliferation of transferred FL9 TCR+ CD8 T cells", "setting": "FL9.2 T cells", "value": "activated FL9 TCR^+ CD8 T cells; also recorded: activates FL9 T cells in vivo"}, {"measurement": "inhibition of the response of I-Ab/Ova323-339 tet+ CD4 cells", "setting": "[1]; FL9-68 in CFA day 0, Ova323-339/CFA day 6, analysis day 14", "value": "50% and > 50%"}, {"measurement": "numbers or percent of non-specifically activated CD4 cells", "setting": "[1]; same experiment as E6", "value": "did not reduce the numbers or percent of non-specifically activated CD4 cells"}, {"measurement": "CD44+ CD4 T-cell memory responses to irradiated donor lymphocytes", "setting": "[2]; CD4+ T cells from B6 hosts", "value": "reduced CD44^+ CD4 T-cell memory responses"}, {"measurement": "increase in FL9-specific Treg measured by FL9-Qa-1 tetramers", "setting": "[2]; allograft-draining lymph nodes, day 20 after kidney transplantation", "value": "> 7", "unit": "fold"}, {"measurement": "mean survival time of kidney allograft", "setting": "[2]; controls 20.5 days", "value": 40, "unit": "days"}, {"measurement": "donor-specific antibody (DSA)", "setting": "[2]; kidney graft recipients", "value": "markedly reduced donor specific Ab generation; also recorded: significant decrease in DSA"}, {"measurement": "GC response: frequency of Tfh, activated GC B and plasma cells", "setting": "[2]; kidney graft recipients, vs IFA alone", "value": "markedly reduced the GC response"}, {"measurement": "C4d deposition in peritubular capillaries of kidney allografts", "setting": "[2]; mouse, in vivo", "value": "reduced C4d deposition"}, {"measurement": "NKG2D+Ly49+ CD8 T cells (activated CD8 Treg)", "setting": "MCMV; mouse, in vivo", "value": "increase of NKG2D+Ly49^+ CD8 T cells"}, {"measurement": "production of anti-dsDNA Ab", "setting": "MCMV; vaccination at days 0, 8 and 12 after viral infection", "value": "significantly reduced production of anti-dsDNA Ab"}, {"measurement": "EL4 tumor growth", "setting": "EL4 tumor cells (Qa-1+)", "value": "facilitated tumor growth"}, {"measurement": "proliferation of FL9 T cells and killing of activated CD4 cells", "setting": "FL9 T cells", "value": "promoted proliferation of FL9 T cells leading to enhanced killing of activated CD4 cells"}, {"measurement": "increase in FL9-specific CD8 cells within the Ly49+ CD8 T cell pool", "setting": "Balb/C heart allografts; B6 mice bearing Balb/C skin allograft", "value": "4-5 fold"}, {"measurement": "heart graft survival", "setting": "Balb/C heart allografts", "value": "significantly prolonged graft survival times; also recorded: promotes graft survival"}, {"measurement": "heart graft survival", "setting": "Balb/C heart allografts; listed as SA peptide", "value": "significantly prolonged graft survival"}, {"measurement": "graft pathology (C4d deposition, immune cell infiltration)", "setting": "Balb/C heart allografts", "value": "markedly diminished graft pathology; also recorded: inhibits graft tissue injury"}, {"measurement": "graft pathology (C4d deposition, immune cell infiltration)", "setting": "Balb/C heart allografts; listed as FL9 SA peptide", "value": "maintenance of tissue integrity"}, {"measurement": "donor-specific antibody (DSA)", "setting": "Balb/C heart allografts", "value": "decrease of donor specific Ab (DSA) generation; also recorded: reduced donor-specific antibody (DSA) responses; also recorded: inhibits production of DSA"}, {"measurement": "donor-specific antibody (DSA)", "setting": "Balb/C heart allografts; listed as FL9 SA peptide", "value": "reduced generation of donor specific antibodies"}, {"measurement": "GC response: Tfh, GC B and plasma cells", "setting": "Balb/C heart allografts; heart graft recipients, vs IFA alone", "value": "significant reduction of these cells; also recorded: decreased Tfh, GC B and plasma cell formation; also recorded: significantly reduced GC responses; also recorded: inhibition of GC Ab response"}, {"measurement": "alloreactive activated CD4 cells", "setting": "Balb/C heart allografts; recipient CD4 cells co-incubated with irradiated donor splenocytes", "value": "decrease in alloreactive activated CD4 cells"}, {"measurement": "efficacy relative to Hsp60p216", "setting": "Balb/C heart allografts; reduction in Tfh and mature B cells during sensitization, listed as FL9-SA", "value": "substantially more efficacious than Hsp60p2l6"}]}]}
